In patent US20130072534A1 (LABORATORIOS DEL DR. ESTEVE, S.A., priority 2009, published 2013):

System: formalin-induced nociceptive behaviour
Test: Formalin test in mice (phase II licking/biting of the injected paw)
Format: in vivo, Male CD-1 mice
Conditions: i.p.; for efficacy of analgesic effect (in words): formalin test
Procedure: To assess the reliability of the efficacy and potency of the compounds and combinations tested, the nociceptive response was assessed by the formalin test. The behaviour analysed was the total time spent in licking and biting of the injected paw measured during the 15-30 min period (phase II) (Dubuisson D., et al. Pain 1977, 4, 161 and Rosland et al., Pain 1990, 42, 235).
All drugs prepared at various concentrations were dissolved in 0.5% hydroxypropyl methylcellulose in distilled water and coadministered in a volume of 10 ml/kg per mice through the intraperitoneal (i.p.) route. Control animals received the same volume of vehicle.
Male CD-1 mice weighing between 20 and 25 g (Charles River Laboratories) are used for all the experiments. The animals were housed in a temperature-controlled room (21±1° C.) with air exchange every 20 min and an automatic 12-h light/dark cycle (light from 08.00 to 20.00 h). They were fed a standard laboratory diet and tap water ad libitum until the beginning of the experiments. The experiments were performed during the light phase (09.00-15.00 h). Naive animals were used throughout.
A concentrated formalin solution was diluted with saline to the appropriate concentration (2.5%). Formalin test was performed as described in Rosland et al., Pain 1990, 42, 235, with slight modifications. 20 microliters of the formalin solution was injected subcutaneously (s.c.) into the dorsal surface of the right hind paw of the mouse, using a Hamilton microsyringe with a 301/2-gauge needle. The nociceptive behaviour (licking and/or biting) was recorded from 15 to 35 min after formalin injection as an indicator of the pain response.
The method is based on the comparison of the effect of several doses of a combination at a determined ratio with respect to the effects achieved using different doses of each of the two agents. […] The theoretical additive dose (Zadd) for a combination was then calculated and compared with the experimental ED50 of the combination (Zt) as described in Tallarida, Drug synergism 2001, 298, 865-872. […]

Structure (SMILES) | maximum efficacy (analgesic effect) (formalin test (2.5% formalin s.c. into hind paw)) | efficacy of analgesic effect (in words)
Cc1ccc(-c2cc(C(F)(F)F)nn2-c2ccc(S(N)(=O)=O)cc2)cc1 [celecoxib, 4-[5-(4-methylphenyl)-3-(trifluoromethyl)pyrazol-1-yl]benzenesulfonamide] | 45.78% | ceiling effect
COc1ccc(C(CN(C)C)C2(O)CCCCC2)cc1 (racemic) [Venlafaxine, (rac)-1-[2-dimethylamino-1-(4-methoxyphenyl)-ethyl]cyclohexanol] | – | full efficacy
